Laboratory results as given in PMC7418971 (PLoS Pathogens, 2020).
Like-named read-outs stand apart in the source and are kept apart here.

What was measured:
[1] = system: A/England/195/2009 (E195) influenza A virus; assay: microbe, parasite or virus in culture; type: cell-based; settings: for IC50: read-out: Virus culture IC50
H1N1 WSN virus = settings: read-out: EC50 in antiviral plaque assay; cited from earlier work
[2] = system: Eng195 M2-N31 TM/CD peptides; type: biochemical
Eng195 in MDCK culture = type: cell-based, influenza A virus
[3] = system: M2-N31 and M2-S31 CD peptides; type: biochemical, Influenza A/England/195/2009 (H1N1)

SMILES | antiviral effect versus Eng195 in culture [1] | Virus culture Fold Titre Reduction (80 µM) [1] [x] | IC50 ([1]; Influenza A virus, MDCK) [nM] | TM/CD peptide preference in titration [2] | combination effect with M2WJ332 (Eng195 in MDCK culture) | other results
O=C(Nc1nnc[nH]1)c1cc2ccccc2o1 [K] | neither B nor K exhibited antiviral effects |  |  |  |  | 
c1csc(-c2cc(CNC34CC5CC(CC(C5)C3)C4)no2)c1 [M2WJ332, (3S,5S,7S)-N-{[5-(thiophen-2-yl)-1,2-oxazol-3-yl]methyl}tricycle[3.3.1.1~3,7~]decan-1-aminium, reference compound] |  | 100 | 1180 |  |  | reduction in virus titre [1]: 1–2 log10; IC50 [1]: 1180 nM; EC50 (H1N1 WSN virus): 153 nM
CN1CCN(C(=O)c2ccc3ccccc3c2)CC1 [B] | neither B nor K exhibited antiviral effects |  |  |  |  | 
COc1ccccc1NC(=S)NC(=O)c1cc2ccccc2cc1OC [L1.1] |  | 1000 | 1330 | equivalent activity versus both TM/CD | synergistic | reduction in virus titre [1]: ~3 log10; combination effect with Zanamivir (Eng195 in MDCK culture): synergistic
Cc1ccc2nc(Oc3ccccc3)ccc2c1 [DP9] |  | 100 | 25000 to 50000 | preferential inhibition of CD peptides | synergistic | IC50 [1]: > 25000 nM
Cc1c2ccccc2n2cc(-c3ccccc3)nc(C(C)C)c12 [DL7] |  | 100 | 1480 | preference for CD peptides but with activity versus TM at higher concentrations | antagonism | combination effect with L1.1 (Eng195 in MDCK culture): antagonism
OCCNC12CC3CC(CC(C3)C1)C2 [J] | antiviral effects |  |  |  |  | 
c1cc2nc(C34CC5CC(CC(C5)C3)C4)[nH]c2cn1 [D] | antiviral effects |  |  |  |  | 
Cc1ncc(C23CC4CC(CC(C4)C2)C3)[nH]1 [H] | antiviral effects |  |  |  |  | 
CCCCCCCCCN1C[C@H](O)[C@@H](O)[C@H](O)[C@H]1CO [NNDNJ, reference compound] | antiviral effects |  |  |  |  | effect on M2 oligomerisation [3]: disrupted oligomerisation
